Legend:
KDR = KDR (Homo sapiens, UniProt P35968); experiment: KDR cellular assay (KDR receptor phosphorylation ELISA); assay type: cell-based; set-up: expressed in transfected cells; host or cells: 3T3 (embryonic mouse) cells; conditions: KDR transfected 3T3 (embryonic mouse) cells, VEGF stimulated; read-out: IC50 inhibition of KDR phosphorylation
How it was run: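 KDR-transfected mouse 3T3 cells treated 20 min at 37° C with half-log compound dilutions, then stimulated 10 min with VEGF (100 ng/ml solution). Lysates captured on anti-KDR plates; phosphorylation by biotin antibody/streptavidin-HRP ELISA at 450 nm. IC50 by non-linear regression.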

Aurora A = target: T1, Aurora A (Homo sapiens, UniProt O14965); experiment: Aurora A enzyme inhibition (time-resolved fluorescence, STK substrate-2); assay type: biochemical; conditions: 1 mM ATP
T1 sequence (O14965 1-403): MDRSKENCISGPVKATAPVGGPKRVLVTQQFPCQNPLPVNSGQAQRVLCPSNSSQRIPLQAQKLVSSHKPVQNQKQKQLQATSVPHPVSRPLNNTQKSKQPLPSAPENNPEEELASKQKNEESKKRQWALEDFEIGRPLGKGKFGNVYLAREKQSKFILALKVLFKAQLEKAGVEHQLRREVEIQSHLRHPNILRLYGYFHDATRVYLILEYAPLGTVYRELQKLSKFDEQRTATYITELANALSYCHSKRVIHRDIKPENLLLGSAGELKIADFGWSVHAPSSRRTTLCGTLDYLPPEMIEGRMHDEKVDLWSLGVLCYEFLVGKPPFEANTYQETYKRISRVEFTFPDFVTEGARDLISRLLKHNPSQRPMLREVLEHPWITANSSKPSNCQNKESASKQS
How it was run: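 Active enzyme incubated 1 h with biotinylated STK substrate-2, 1 mM ATP and inhibitor in Hepes pH 7.4 with MgCl2, orthovanadate and Triton X-100. EDTA stop; phosphopeptide detected by Eu-cryptate anti-phospho-STK/SA-XL665 TR-FRET (665/615 nm ratio); IC50 by exponential fit.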

NCI-H1299 cells = experiment: Induction of polyploidy in H1299; assay type: cell-based, Human; conditions: Homo sapiens; NCI-H1299, 48 hours; read-out: EC15 (concentration of inhibitor necessary to induce polyploidy in 15% of cells)
How it was run: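 NCI-H1299 cells in RPMI 1640/10% FCS were treated with inhibitor concentrations in duplicate for 48 h at 37 C, then formalin-fixed and Hoechst-stained. Nuclear area was measured by high-content imaging, with polyploid (≥4N) defined as >750 μ^2. EC15 was derived by least-squares fit of log dose-response.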

Sequence of KDR (P35968 20-1356): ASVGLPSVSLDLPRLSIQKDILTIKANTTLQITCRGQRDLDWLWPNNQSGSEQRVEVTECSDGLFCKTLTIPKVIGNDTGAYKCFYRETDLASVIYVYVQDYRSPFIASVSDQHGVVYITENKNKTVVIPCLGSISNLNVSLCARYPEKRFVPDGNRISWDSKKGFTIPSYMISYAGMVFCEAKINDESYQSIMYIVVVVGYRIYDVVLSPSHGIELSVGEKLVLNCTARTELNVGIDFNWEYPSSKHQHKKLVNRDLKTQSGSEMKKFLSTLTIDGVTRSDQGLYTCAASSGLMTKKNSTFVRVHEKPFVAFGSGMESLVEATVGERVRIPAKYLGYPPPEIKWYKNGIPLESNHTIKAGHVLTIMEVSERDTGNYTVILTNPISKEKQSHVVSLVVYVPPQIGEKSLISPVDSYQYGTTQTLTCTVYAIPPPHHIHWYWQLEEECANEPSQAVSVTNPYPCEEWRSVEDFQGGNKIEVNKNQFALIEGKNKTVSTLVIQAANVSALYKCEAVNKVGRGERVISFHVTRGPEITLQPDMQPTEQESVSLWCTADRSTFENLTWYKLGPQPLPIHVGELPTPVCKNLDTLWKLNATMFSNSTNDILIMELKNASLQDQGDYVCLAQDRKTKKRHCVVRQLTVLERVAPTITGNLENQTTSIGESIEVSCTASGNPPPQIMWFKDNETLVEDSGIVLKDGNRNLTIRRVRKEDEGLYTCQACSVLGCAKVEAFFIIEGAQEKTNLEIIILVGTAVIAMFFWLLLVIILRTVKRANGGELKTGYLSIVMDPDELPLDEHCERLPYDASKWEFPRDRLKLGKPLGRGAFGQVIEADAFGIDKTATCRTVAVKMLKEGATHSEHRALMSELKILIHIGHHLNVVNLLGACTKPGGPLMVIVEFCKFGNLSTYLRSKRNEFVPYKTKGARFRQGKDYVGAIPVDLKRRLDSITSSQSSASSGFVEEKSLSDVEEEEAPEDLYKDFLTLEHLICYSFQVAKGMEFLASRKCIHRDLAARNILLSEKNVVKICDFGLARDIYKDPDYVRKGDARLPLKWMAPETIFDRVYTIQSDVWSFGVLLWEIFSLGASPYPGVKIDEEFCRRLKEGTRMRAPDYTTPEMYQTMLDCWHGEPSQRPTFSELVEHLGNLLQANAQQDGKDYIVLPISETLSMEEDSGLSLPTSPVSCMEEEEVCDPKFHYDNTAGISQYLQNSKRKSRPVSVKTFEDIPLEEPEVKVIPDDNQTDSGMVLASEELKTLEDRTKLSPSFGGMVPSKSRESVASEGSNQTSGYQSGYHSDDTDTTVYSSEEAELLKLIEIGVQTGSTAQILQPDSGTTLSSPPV

IC50 (KDR) [nM] | Ki (Aurora A) [nM] | SMILES | EC15 (NCI-H1299 cells) [µM]
< 100 | < 100 | CC(C)CCn1cc(Nc2ncc(Cl)c(N[C@H]3[C@@H](C(N)=O)[C@@H]4C=C[C@H]3C4)n2)cn1 [Example 99, (1S,2S,3R,4R)-3-[(5-chloro-2-[1-(3-methylbutyl)-1H-pyrazol-4-yl]aminopyrimidin-4-yl)amino]bicyclo[2.2.1]hept-5-ene-2-carboxamide] | < 0.1
< 100 | < 100 | COCCOCCn1cc(Nc2ncc(Cl)c(N[C@H]3[C@@H](C(N)=O)[C@@H]4C=C[C@H]3C4)n2)cn1 [Example 100, (1S,2S,3R,4R)-3-{[5-chloro-2-({1-[2-(2-methoxyethoxy)ethyl]-1H-pyrazol-4-yl}amino)pyrimidin-4-yl]amino}bicyclo[2.2.1]hept-5-ene-2-carboxamide] | < 0.1
100 to 1000 | < 100 | Cn1cc(Nc2ncc(Cl)c(Nc3ccccc3C3(O)CCC3)n2)cn1 [Example 101, 1-[2-({5-chloro-2-[(1-methyl-1H-pyrazol-4-yl)amino]pyrimidin-4-yl}amino)phenyl]cyclobutanol] | < 0.1
< 100 | < 100 | NC(=O)[C@@H]1[C@H](Nc2nc(Nc3cnn(C[C@H]4CCCN4)c3)ncc2Cl)[C@H]2C=C[C@@H]1C2 [Example 102, (1S,2S,3R,4R)-3-{[5-chloro-2-({1-[(2R)-pyrrolidin-2-ylmethyl]-1H-pyrazol-4-yl}amino)pyrimidin-4-yl]amino}bicyclo[2.2.1]hept-5-ene-2-carboxamide] | < 0.1
100 to 1000 | < 100 | NC(=O)[C@@H]1[C@H](Nc2nc(Nc3cnn(CC(=O)O)c3)ncc2Cl)[C@H]2C=C[C@@H]1C2 [Example 103, {4-[(4-{[(1R,2R,3S,4S)-3-carbamoylbicyclo[2.2.1]hept-5-ene-2-yl]amino}-5-chloropyrimidin-2-yl)amino]-1H-pyrazol-1-yl}acetic acid] | < 0.1
100 to 1000 | < 100 | C[C@@H](O)Cn1cc(Nc2ncc(Cl)c(N[C@@H]3[C@H]4CC[C@H](C4)[C@@H]3C(N)=O)n2)cn1 [Example 104, (1R,2S,3R,4S)-3-{[5-chloro-2-({1-[(2R)-2-hydroxypropyl]-1H-pyrazol-4-yl}amino)pyrimidin-4-yl]amino}bicyclo[2.2.1]heptane-2-carboxamide] | < 0.1
< 100 | < 100 | C[C@@H](O)Cn1cc(Nc2ncc(Cl)c(N[C@H]3[C@@H](C(N)=O)[C@@H]4C=C[C@H]3C4)n2)cn1 [Example 105, (1S,2S,3R,4R)-3-{[5-chloro-2-({1-[(2R)-2-hydroxypropyl]-1H-pyrazol-4-yl}amino)pyrimidin-4-yl]amino}bicyclo[2.2.1]hept-5-ene-2-carboxamide] | < 0.1
< 100 | < 100 | COCCn1cc(Nc2ncc(Br)c(N[C@H]3[C@@H](C(N)=O)[C@@H]4C=C[C@H]3C4)n2)cn1 [Example 106, (1S,2S,3R,4R)-3-[(5-bromo-2-{[1-(2-methoxyethyl)-1H-pyrazol-4-yl]amino}pyrimidin-4-yl)amino]bicyclo[2.2.1]hept-5-ene-2-carboxamide] | < 0.1
< 100 | < 100 | NC(=O)[C@@H]1[C@H](Nc2nc(Nc3cnn([C@@H]4CCOC4)c3)ncc2Cl)[C@H]2C=C[C@@H]1C2 [Example 107, (1S,2S,3R,4R)-3-{[5-chloro-2-({1-[(3R)-tetrahydrofuran-3-yl]-1H-pyrazol-4-yl}amino)pyrimidin-4-yl]amino}bicyclo[2.2.1]hept-5-ene-2-carboxamide] | < 0.1
< 100 | < 100 | NC(=O)[C@@H]1[C@H](Nc2nc(Nc3cnn([C@H]4CCOC4)c3)ncc2Cl)[C@H]2C=C[C@@H]1C2 [Example 108, (1S,2S,3R,4R)-3-{[5-chloro-2-({1-[(3S)-tetrahydrofuran-3-yl]-1H-pyrazol-4-yl}amino)pyrimidin-4-yl]amino}bicyclo[2.2.1]hept-5-ene-2-carboxamide] | < 0.1
100 to 1000 | < 100 | Cn1cc(Nc2ncc(C(F)(F)F)c(Nc3ccccc3C3(O)CNC3)n2)cn1 [Example 109, 3-[2-({2-[(1-methyl-1H-pyrazol-4-yl)amino]-5-(trifluoromethyl)pyrimidin-4-yl}amino)phenyl]azetidin-3-ol] | < 0.1
< 100 | < 100 | COCCOCCn1cc(Nc2ncc(Br)c(N[C@H]3[C@@H](C(N)=O)[C@@H]4C=C[C@H]3C4)n2)cn1 [Example 110, (1S,2S,3R,4R)-3-{[5-bromo-2-({1-[2-(2-methoxyethoxy)ethyl]-1H-pyrazol-4-yl}amino)pyrimidin-4-yl]amino}bicyclo[2.2.1]hept-5-ene-2-carboxamide] | < 0.1
< 100 | < 100 | CC(C)CCn1cc(Nc2ncc(Br)c(N[C@H]3[C@@H](C(N)=O)[C@@H]4C=C[C@H]3C4)n2)cn1 [Example 111, (1S,2S,3R,4R)-3-[(5-bromo-2-{[1-(3-methylbutyl)-1H-pyrazol-4-yl]amino}pyrimidin-4-yl)amino]bicyclo[2.2.1]hept-5-ene-2-carboxamide] | < 0.1
< 100 | < 100 | CC(C)n1cc(Nc2ncc(Br)c(N[C@H]3[C@@H](C(N)=O)[C@@H]4C=C[C@H]3C4)n2)cn1 [Example 112, (1S,2S,3R,4R)-3-({5-bromo-2-[(1-isopropyl-1H-pyrazol-4-yl)amino]pyrimidin-4-yl}amino)bicyclo[2.2.1]hept-5-ene-2-carboxamide] | < 0.1
100 to 1000 | < 100 | Cn1cc(Nc2ncc(C(F)(F)F)c(Nc3ccccc3C3(O)CCC3)n2)cn1 [Example 115, 1-[2-({2-[(1-methyl-1H-pyrazol-4-yl)amino]-5-(trifluoromethyl)pyrimidin-4-yl}amino)phenyl]cyclobutanol] | < 0.1
< 100 | < 100 | NC(=O)[C@@H]1[C@H](Nc2nc(Nc3cnn([C@@H]4CCOC4)c3)ncc2Br)[C@H]2C=C[C@@H]1C2 [Example 116, (1S,2S,3R,4R)-3-{[5-bromo-2-({1-[(3R)-tetrahydrofuran-3-yl]-1H-pyrazol-4-yl}amino)pyrimidin-4-yl]amino}bicyclo[2.2.1]hept-5-ene-2-carboxamide] | < 0.1
< 100 | < 100 | NC(=O)[C@@H]1[C@H](Nc2nc(Nc3cnn([C@H]4CCOC4)c3)ncc2Br)[C@H]2C=C[C@@H]1C2 [Example 117, (1S,2S,3R,4R)-3-{[5-bromo-2-({1-[(3S)-tetrahydrofuran-3-yl]-1H-pyrazol-4-yl}amino)pyrimidin-4-yl]amino}bicyclo[2.2.1]hept-5-ene-2-carboxamide] | < 0.1
< 100 | < 100 | NC(=O)[C@@H]1[C@H](Nc2nc(Nc3cnn(C4CCC4)c3)ncc2Cl)[C@H]2C=C[C@@H]1C2 [Example 118, (1S,2S,3R,4R)-3-({5-chloro-2-[(1-cyclobutyl-1H-pyrazol-4-yl)amino]pyrimidin-4-yl}amino)bicyclo[2.2.1]hept-5-ene-2-carboxamide] | < 0.1
100 to 1000 | < 100 | CS(=O)(=O)CCn1cc(Nc2ncc(Cl)c(N[C@H]3[C@@H](C(N)=O)[C@@H]4C=C[C@H]3C4)n2)cn1 [Example 119, (1S,2S,3R,4R)-3-{[5-chloro-2-({1-[2-(methylsulfonyl)ethyl]-1H-pyrazol-4-yl}amino)pyrimidin-4-yl]amino}bicyclo[2.2.1]hept-5-ene-2-carboxamide] | < 0.1
< 100 | < 100 | CS(=O)(=O)CCn1cc(Nc2ncc(Br)c(N[C@H]3[C@@H](C(N)=O)[C@@H]4C=C[C@H]3C4)n2)cn1 [Example 122, (1S,2S,3R,4R)-3-{[5-bromo-2-({1-[2-(methylsulfonyl)ethyl]-1H-pyrazol-4-yl}amino)pyrimidin-4-yl]amino}bicyclo[2.2.1]hept-5-ene-2-carboxamide] | < 0.1
< 100 | < 100 | NC(=O)[C@@H]1[C@H](Nc2nc(Nc3cnn(C4CCC4)c3)ncc2Br)[C@H]2C=C[C@@H]1C2 [Example 123, (1S,2S,3R,4R)-3-({5-bromo-2-[(1-cyclobutyl-1H-pyrazol-4-yl)amino]pyrimidin-4-yl}amino)bicyclo[2.2.1]hept-5-ene-2-carboxamide] | < 0.1

From patent publication US8426408B2, “Pyrimidine inhibitors of kinases” (AbbVie Inc., priority 2009, dated 2013)
